The values that follow come from patent US7169786B2, “Isoxazoline derivatives as anti-depressants” (priority 2001, dated 2007).

For assay [1], the target named is T1, h5-HT transporter (Homo sapiens, UniProt P31645).
T1 construct: Human platelet membranes (Oceanix Biosciences Corporation, Hanover, Md., USA) were thawed; tissue Oceanix Biosciences Corporation, Hanover, Md., USA; host or cells: human platelet membranes
The assay is described as follows: Radioligand binding experiment for 5-HT transporter ([3H]paroxetine, human platelet membranes). The note with it: human platelet membranes, [3H]paroxetine 0.5 nM; for IC50: read-out: 5HTT pIC50 (converted). The gist of the method:
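Competition binding of [^3H]paroxetine to human platelet membranes in Tris-HCl 50 mM, 120 mM NaCl, 5 mM KCl; filter-bound radioactivity counted.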

The target of assay [2] is T2, hα2C receptor (Homo sapiens, UniProt P18825).
T2 construct: expressed in transfected cells
T2 sequence (P18825 1-462): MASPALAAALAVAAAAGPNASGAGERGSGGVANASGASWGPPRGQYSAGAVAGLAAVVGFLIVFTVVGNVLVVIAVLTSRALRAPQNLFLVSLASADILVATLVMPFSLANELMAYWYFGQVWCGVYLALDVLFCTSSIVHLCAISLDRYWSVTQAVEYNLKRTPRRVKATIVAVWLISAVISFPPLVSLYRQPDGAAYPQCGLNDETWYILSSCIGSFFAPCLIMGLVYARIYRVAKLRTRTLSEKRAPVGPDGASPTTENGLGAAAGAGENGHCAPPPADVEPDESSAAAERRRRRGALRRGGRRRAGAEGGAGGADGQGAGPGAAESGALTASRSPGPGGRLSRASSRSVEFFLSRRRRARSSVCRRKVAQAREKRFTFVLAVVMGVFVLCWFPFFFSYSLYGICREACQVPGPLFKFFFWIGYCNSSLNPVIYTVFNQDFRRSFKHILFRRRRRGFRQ
Description: Radioligand binding experiment for hα2C receptor ([3H]-raulwolscine). The note with it: membranes of CHO cells expressing human α2C receptor, [3H]raulwolscine 1 nM; for IC50: read-out: hα2C pIC50 (converted). Summed up: (§1)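 Competition binding with [3H]-rauwolscine on membranes from CHO cells stably expressing human α2A, α2B or α2C receptors (sodium butyrate-induced), in 25 mM glycylglycine pH 8.0; filtration and scintillation counting.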

Assay [3] addresses T3, hα2A receptor (Homo sapiens, UniProt P08913).
T3 construct: expressed in transfected cells
T3 sequence (P08913 1-465): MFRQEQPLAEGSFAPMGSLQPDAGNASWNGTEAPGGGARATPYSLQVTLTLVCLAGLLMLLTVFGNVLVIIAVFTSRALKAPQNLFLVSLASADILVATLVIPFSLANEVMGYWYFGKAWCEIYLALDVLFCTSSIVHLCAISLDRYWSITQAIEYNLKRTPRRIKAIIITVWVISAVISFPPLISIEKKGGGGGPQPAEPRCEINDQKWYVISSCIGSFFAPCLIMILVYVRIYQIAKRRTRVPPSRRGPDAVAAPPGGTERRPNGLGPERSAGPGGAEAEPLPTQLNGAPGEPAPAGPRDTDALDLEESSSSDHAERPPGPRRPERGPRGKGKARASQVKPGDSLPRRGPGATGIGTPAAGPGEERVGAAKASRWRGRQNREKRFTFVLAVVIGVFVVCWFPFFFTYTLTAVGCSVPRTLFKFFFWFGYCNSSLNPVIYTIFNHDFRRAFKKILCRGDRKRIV
Description: Radioligand binding experiment for hα2A receptor ([3H]-raulwolscine). As to conditions: membranes of CHO cells expressing human α2A receptor, [3H]raulwolscine 1 nM; for IC50: read-out: hα2A pIC50 (converted). The gist of the method: as §1

For assay [4], the target named is T4, hα2B receptor (Homo sapiens, UniProt P18089).
T4 construct: expressed in transfected cells
T4 sequence (P18089 1-450): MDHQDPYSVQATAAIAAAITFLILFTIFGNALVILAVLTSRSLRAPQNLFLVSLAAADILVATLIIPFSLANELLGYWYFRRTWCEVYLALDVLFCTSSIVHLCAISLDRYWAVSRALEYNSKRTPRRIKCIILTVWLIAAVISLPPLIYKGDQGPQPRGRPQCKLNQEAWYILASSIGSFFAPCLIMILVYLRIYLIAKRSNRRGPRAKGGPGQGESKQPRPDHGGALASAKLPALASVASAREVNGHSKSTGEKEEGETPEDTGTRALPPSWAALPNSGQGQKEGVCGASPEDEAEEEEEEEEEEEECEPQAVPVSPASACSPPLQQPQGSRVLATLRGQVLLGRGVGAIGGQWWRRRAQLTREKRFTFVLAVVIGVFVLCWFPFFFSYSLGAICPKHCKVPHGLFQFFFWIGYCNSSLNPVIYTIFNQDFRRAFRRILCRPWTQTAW
Description: Radioligand binding experiment for hα2B receptor ([3H]-raulwolscine). As to conditions: membranes of CHO cells expressing human α2B receptor, [3H]raulwolscine 1 nM; for IC50: read-out: hα2B pIC50 (converted). Summed up: as §1

T1 sequence (P31645 whole entry): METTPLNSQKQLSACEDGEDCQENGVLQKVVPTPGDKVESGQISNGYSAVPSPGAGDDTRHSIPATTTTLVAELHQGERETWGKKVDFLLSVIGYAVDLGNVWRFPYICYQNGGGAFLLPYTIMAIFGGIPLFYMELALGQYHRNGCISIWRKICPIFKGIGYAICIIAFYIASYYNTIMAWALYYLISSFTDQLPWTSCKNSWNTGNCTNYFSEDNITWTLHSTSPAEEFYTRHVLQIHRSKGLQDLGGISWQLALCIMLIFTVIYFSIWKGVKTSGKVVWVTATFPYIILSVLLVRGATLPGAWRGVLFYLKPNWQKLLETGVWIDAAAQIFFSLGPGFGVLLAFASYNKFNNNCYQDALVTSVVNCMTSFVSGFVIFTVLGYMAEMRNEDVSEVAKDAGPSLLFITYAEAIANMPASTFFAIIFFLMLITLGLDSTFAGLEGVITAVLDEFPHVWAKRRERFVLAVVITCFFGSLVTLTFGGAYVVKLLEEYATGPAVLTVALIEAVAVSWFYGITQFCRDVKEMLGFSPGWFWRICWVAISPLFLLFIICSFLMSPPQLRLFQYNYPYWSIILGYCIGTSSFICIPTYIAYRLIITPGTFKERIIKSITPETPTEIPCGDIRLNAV

On to `COc1cc2c(cc1OC)C1=NOC(CN3CCN(Cc4ccsc4)CC3)C1CO2` (stereo not shown) [Compound 300], for which the IC50 in assay [1] is 724 nM; in assay [2], 631 nM; in assay [3] it was 347 nM; in assay [4], 933 nM.
As to `COc1cc2c(cc1OC)C1=NOC(CN3CCN(CC(Br)=Cc4ccccc4)CC3)C1CO2` (stereo not shown) [Compound 143], the IC50 in assay [1] is 24 nM; in assay [2], 23.4 nM; in assay [3] it was 77.6 nM; in assay [4], 25.1 nM.
In the same order, the values of `c1ccc2cc(CN3CCN(CC4ON=C5c6cc7c(cc6OCC54)OCO7)CC3)ccc2c1` (stereo not shown) [Compound 277] are 107 nM, 17 nM, 2.45 nM and 7.94 nM.
In the same order, the values of `COc1cc2c(cc1OC(C)=O)C1=NOC(CN3CCN(C/C(C)=C/c4ccccc4)CC3)C1CO2` (single isomer, unassigned) [Compound 333] are 30.2 nM, 4.68 nM, 4.79 nM and 3.8 nM.
With `COc1cc2c(cc1OC)C1=NOC(CN3CCN(Cc4ccoc4)CC3)C1CO2` (stereo not shown) [Compound 296], the IC50 in assay [1] was 871 nM; in assay [2] it was 724 nM; in assay [3] it was 759 nM; in assay [4], 407 nM.
With `CSc1cc2c(cc1F)C1=NOC(CN3CCN(CC(C)=Cc4ccccc4)CC3)C1CO2` (stereo not shown) [Compound 244], the IC50 is 126 nM in assay [1], 1.35 nM in assay [2], 3.8 nM in assay [3] and 7.41 nM in assay [4].
For the compound `COCCOCOc1ccc2c(c1)OCC1C2=NOC1CN1CCN(Cc2ccc3ccccc3c2)CC1` (stereo not shown) [Compound 267], the IC50 is 5.01 nM in assay [1], 2.82 nM in assay [2], 3.24 nM in assay [3] and 12.6 nM in assay [4].
`CC(=O)Oc1ccc2c(c1)OCC1C2=NOC1CN1CCN(CC=Cc2ccccc2)CC1` (stereo not shown) [Compound 233]: the “5HTT pIC50” value in assay [1] amounted to 7.36. Besides, in assay [2], the “hα2C pIC50” value turned out to be 7.94. Moreover, the “hα2A pIC50” value in assay [3] was 8.33. Moreover, the “hα2B pIC50” value in assay [4] came out at 8.20.
As for `C(=Cc1ccccc1)CN1CCN(CC2ON=C3c4cc5c(cc4OCC32)OCC5)CC1` (racemic) [Compound 279], the “5HTT pIC50” value in assay [1] is listed as 7.45. Moreover, the “hα2C pIC50” value in assay [2] is listed as 8.24. In assay [3], the “hα2A pIC50” value was determined as 8.45. For the same compound, in assay [4], the “hα2B pIC50” value stood at 8.03.
In the same order, the values of `COc1cc2c(cc1Cl)C1=NOC(CN3CCN(CC(C)=Cc4ccccc4)CC3)C1CO2` (stereo not shown) [Compound 246] are 7.50, 7.86, 7.55 and 7.90.
For `COc1cc2c(cc1OC)C1=NOC(CN3CCN(CCOc4ccc(F)cc4)CC3)C1CO2` (stereo not shown) [Compound 48], the IC50 in assay [1] is 126 nM; in assay [2], 4.37 nM; in assay [3], 13.2 nM; in assay [4] it was 5.75 nM.
Turning to `COc1cc2c(cc1OC)C1=NOC(CN3CCN(CC(C)Oc4cccc(F)c4)CC3)C1CO2` (stereo not shown) [Compound 27], the IC50 in assay [1] is 18.2 nM; in assay [2] it was 1.55 nM; in assay [3] it was 4.07 nM; in assay [4], 6.03 nM.
As to `COc1cc2c(cc1OC)C1=NOC(CN3CCN(CC4=Cc5ccccc5OC4)CC3)C1CO2` (stereo not shown) [Compound 65], the IC50 in assay [1] is 5.13 nM; in assay [2] it was 5.13 nM; in assay [3], 13.2 nM; in assay [4], 18.2 nM.
Take `COc1cc2c(cc1OC)C1=NOC(CN3CCN(Cc4ccc5c(N)cccc5c4)CC3)C1CO2` (stereo not shown) [Compound 304]: the IC50 was 38.9 nM in assay [1], 64.6 nM in assay [2], 19.5 nM in assay [3] and 58.9 nM in assay [4].
With `COc1cc2c(cc1OC)C1=NOC(CN3CCN(CC=Cc4ccc5c(c4)CCO5)CC3)C1CO2` (stereo not shown) [Compound 125], the IC50 in assay [1] is 13.5 nM; in assay [2] it was 34.7 nM; in assay [3], 56.2 nM; in assay [4] it was 141 nM.
As to `COc1cc2c(cc1OC)C1=NOC(CN3CCN(Cc4cc5ccccc5o4)CC3)C1CO2` (stereo not shown) [Compound 54], the IC50 in assay [1] was 41.7 nM; in assay [2] it was 36.3 nM; in assay [3], 19.1 nM; in assay [4] it was 38 nM.
Turning to `COc1cc2c(cc1OC)C1=NOC(CN3CCN(CC(C)Nc4ccccc4)CC3)C1CO2` (stereo not shown) [Compound 26], the IC50 is 676 nM in assay [1], 245 nM in assay [2], 525 nM in assay [3] and 102 nM in assay [4].
The like results for `COc1cc2c(cc1OC)C1=NOC(CN3CCN(Cc4cccc(Cl)c4)CC3)C1CO2` (stereo not shown) [Compound 14] were, in that order, 363 nM, 263 nM, 427 nM and 646 nM.
For the compound `COc1cc2c(cc1OC)C1=NOC(CN3CCN(CC=Cc4cccc(C)c4)CC3)C1CO2` (stereo not shown) [Compound 110], the IC50 in assay [1] is 30.2 nM; in assay [2], 34.7 nM; in assay [3], 69.2 nM; in assay [4], 112 nM.
